Data as given in PubChem BioAssay (NCI).
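In this assay, cells in 96-well plates receive the compound at five concentrations for 48 hours. Endpoints are linearly interpolated between the surrounding concentrations. The concentration for full growth arrest is given as TGI.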

Key:
Experiment in all cases: NCI-60 cell line screen, 48 h
[1] = test system: KM12 colon
[2] = test system: HCC-2998 colon
[3] = test system: CCRF-CEM leukemia
[4] = test system: A498 renal
[5] = test system: SK-MEL-28 melanoma
[6] = test system: COLO 205 colon
[7] = test system: LOX IMVI melanoma
[8] = test system: SNB-19 CNS
[9] = test system: OVCAR-3 ovarian
[10] = test system: HCT-15 colon
[11] = test system: IGROV1 ovarian
[12] = test system: NCI-H460 lung
[13] = test system: MOLT-4 leukemia
[14] = test system: NCI-H23 lung
[15] = test system: M14 melanoma
[16] = test system: U251 CNS
[17] = test system: NCI-H522 lung
[18] = test system: HT29 colon
[19] = test system: DU-145 prostate

Measured: TGI

Cc1c(/C=N/NC(=O)c2ccccc2)c(=O)n(-c2ccccc2)n1C
not listed: [19]
> 100 µM: all other assays above

Cc1ccc(C2(C)NC(=S)N(NC(N)=S)C2=S)cc1 (stereo not drawn)
not listed: [1] | [17] | [18] | [19]
> 100 µM: all other assays above

CC(C)=CCC/C(C)=C/CC/C(C)=C/CC/C=C(\C)CC/C=C(\C)CCC1SC1(C)C (stereo not drawn)
not listed: [9] | [19]
> 100 µM: all other assays above

O=c1n(CCCN2CCN(c3cccc(Cl)c3)CC2)nc2n1-c1ccc3ccccc3c1SC2
not listed: [2] | [14] | [15]
> 100 µM: all other assays above

Cc1ccccc1N=Cc1ccc(N(CCC#N)S(=O)(=O)c2ccccc2)cc1
not listed: [19]
> 100 µM: all other assays above

CNc1nnnn1C1OC(CO)C(O)C1O (stereo not drawn)
not listed: [5] | [8] | [14] | [19]
> 100 µM: all other assays above

O=C1NC2OCC(O)C(O1)C2O (stereo not drawn)
not listed: [2] | [19]
> 100 µM: all other assays above

Cn1c(=O)oc2cc(C(=S)N3CCC(Cc4ccccc4)CC3)ccc21
not listed: [2] | [17]
> 100 µM: all other assays above
